Consider one molecule from publication PMC6576746, “Rational discovery of dual-indication multi-target PDE/Kinase inhibitor for precision anti-cancer therapy using structural systems pharmacology” (PLoS Computational Biology, 2019).

Holding throughout (assay): biochemical
What all share (parameters): DiscoverX KinomeScan competition binding assay across human kinases; per cent of control at 10 and 100 uM

The target in one assay is CDK9 (Homo sapiens, UniProt P50750). As to conditions: competition binding, % of control; read-out: Percent Control (100 uM Levosimendan). The essentials: (§1)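 Binding is expressed as %control, normalised between positive and negative control signals. The compound (levosimendan) was tested at 10 μM and 100 μM in the DiscoverX KinomeScan competition binding format against human kinases.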
Sequence of CDK9 (P50750 whole entry): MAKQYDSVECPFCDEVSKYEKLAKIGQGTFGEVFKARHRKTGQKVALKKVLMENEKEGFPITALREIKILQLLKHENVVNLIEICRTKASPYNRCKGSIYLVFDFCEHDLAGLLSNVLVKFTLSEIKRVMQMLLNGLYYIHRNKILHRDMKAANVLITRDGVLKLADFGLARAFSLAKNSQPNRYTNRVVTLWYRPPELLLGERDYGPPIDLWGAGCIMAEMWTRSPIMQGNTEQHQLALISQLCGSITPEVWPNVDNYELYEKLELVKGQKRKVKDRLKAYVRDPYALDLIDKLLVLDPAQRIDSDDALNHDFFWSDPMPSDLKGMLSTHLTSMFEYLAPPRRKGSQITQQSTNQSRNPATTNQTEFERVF

The target of the next assay is CLK3 (Homo sapiens, UniProt P49761). Conditions: competition binding, % of control; read-out: Percent Control (100 uM Levosimendan). The essentials: as §1
Sequence of CLK3 (P49761 whole entry): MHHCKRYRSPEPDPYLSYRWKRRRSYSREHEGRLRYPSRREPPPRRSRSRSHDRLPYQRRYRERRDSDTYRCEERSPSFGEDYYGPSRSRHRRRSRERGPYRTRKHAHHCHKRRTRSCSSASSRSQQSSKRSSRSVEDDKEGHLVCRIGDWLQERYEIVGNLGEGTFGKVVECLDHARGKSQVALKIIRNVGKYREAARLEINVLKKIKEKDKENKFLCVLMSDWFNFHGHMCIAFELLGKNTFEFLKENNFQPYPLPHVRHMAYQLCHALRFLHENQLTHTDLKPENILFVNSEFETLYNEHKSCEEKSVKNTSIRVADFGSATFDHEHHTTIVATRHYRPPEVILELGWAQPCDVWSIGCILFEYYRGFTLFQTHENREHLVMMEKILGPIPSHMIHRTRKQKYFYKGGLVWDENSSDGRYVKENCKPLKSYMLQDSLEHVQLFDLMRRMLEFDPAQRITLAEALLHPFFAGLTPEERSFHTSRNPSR
For another assay, the target named is MAP3K15 (Homo sapiens, UniProt Q6ZN16). Conditions: competition binding, % of control; read-out: Percent Control (100 uM Levosimendan). The essentials:
as §1

The next assay deals with T1, DRAK2 (Homo sapiens, UniProt O94768).
T1 construct: gene STK17B
T1 sequence (O94768 whole entry): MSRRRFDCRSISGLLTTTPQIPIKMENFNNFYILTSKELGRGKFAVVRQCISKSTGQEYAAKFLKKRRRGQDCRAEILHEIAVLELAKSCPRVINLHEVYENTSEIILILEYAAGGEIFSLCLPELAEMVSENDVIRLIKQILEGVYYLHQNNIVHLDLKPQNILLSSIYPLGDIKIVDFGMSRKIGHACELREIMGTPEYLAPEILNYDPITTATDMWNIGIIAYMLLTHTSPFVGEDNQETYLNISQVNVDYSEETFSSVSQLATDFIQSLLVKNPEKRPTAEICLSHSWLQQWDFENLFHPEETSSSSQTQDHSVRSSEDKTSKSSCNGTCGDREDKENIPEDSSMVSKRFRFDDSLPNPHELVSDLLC
As to conditions: competition binding, % of control. The essentials:
as §1

In the next assay the target is NEK6 (Homo sapiens, UniProt Q9HC98). As to conditions: competition binding, % of control; read-out: Percent Control (100 uM Levosimendan). The method, boiled down:
as §1

The target of the next assay is T2, RIOK3 (Homo sapiens, UniProt O14730).
T2 sequence (O14730 1-519): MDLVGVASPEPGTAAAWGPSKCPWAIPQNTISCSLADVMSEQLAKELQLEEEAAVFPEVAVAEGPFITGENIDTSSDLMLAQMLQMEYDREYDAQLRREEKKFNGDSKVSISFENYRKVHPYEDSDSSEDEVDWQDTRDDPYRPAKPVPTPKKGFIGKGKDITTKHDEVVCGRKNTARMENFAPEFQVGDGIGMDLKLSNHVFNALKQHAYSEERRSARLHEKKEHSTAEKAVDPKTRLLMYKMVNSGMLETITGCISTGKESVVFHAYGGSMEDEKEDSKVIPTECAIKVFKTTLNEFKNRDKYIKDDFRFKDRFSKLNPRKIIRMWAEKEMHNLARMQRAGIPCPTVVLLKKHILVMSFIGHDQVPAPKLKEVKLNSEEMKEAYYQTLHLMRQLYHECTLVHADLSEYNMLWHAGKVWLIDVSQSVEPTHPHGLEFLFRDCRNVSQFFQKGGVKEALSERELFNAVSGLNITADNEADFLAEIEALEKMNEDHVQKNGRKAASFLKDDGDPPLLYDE
As to conditions: competition binding, % of control. The method, boiled down:
as §1

In another assay the target is ALK(C1156Y) (Homo sapiens, UniProt Q9UM73, C1156Y). Conditions: competition binding, % of control; read-out: Percent Control (100 uM Levosimendan). The essentials:
as §1

The target in another assay is T3, AMPK-alpha2 (Homo sapiens, UniProt P54646).
T3 construct: gene PRKAA2
T3 sequence (P54646 whole entry): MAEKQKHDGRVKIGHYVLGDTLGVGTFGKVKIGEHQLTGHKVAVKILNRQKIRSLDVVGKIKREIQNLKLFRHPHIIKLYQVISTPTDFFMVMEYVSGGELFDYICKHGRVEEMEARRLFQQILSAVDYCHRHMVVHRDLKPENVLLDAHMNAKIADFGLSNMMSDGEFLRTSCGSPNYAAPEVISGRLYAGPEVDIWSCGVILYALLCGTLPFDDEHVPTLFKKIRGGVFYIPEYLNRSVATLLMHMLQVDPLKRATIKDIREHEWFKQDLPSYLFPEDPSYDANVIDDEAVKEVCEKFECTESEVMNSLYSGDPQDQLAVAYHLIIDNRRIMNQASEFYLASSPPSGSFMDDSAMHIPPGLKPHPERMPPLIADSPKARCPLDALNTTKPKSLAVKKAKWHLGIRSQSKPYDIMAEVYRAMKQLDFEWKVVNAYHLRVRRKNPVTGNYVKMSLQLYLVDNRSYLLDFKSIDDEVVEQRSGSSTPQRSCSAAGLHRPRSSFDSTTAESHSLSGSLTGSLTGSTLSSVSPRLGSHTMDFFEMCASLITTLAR
As to conditions: competition binding, % of control; read-out: Percent Control (100 uM Levosimendan). The essentials: as §1

In a further assay the target is BRAF (Homo sapiens, UniProt P15056). As to conditions: competition binding, % of control; read-out: Percent Control (100 uM Levosimendan). The essentials:
as §1

For another assay, the target named is T4, MEK5 (Homo sapiens, UniProt Q13163).
T4 construct: gene MAP2K5
T4 sequence (Q13163 whole entry): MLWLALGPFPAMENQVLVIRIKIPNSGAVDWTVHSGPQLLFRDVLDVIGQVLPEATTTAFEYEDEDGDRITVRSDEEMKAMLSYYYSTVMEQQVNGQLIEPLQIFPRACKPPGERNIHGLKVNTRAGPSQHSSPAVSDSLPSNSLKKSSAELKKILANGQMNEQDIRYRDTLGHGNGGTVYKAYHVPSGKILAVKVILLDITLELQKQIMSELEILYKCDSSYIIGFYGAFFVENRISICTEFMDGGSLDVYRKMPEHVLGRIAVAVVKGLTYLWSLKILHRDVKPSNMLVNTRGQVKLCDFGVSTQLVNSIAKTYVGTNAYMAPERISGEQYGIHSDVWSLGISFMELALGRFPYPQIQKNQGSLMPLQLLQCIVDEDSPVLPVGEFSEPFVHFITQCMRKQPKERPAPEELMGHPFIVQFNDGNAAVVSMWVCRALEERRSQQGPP
As to conditions: competition binding, % of control. The essentials:
as §1

A further assay deals with T5, NIM1 (Homo sapiens, UniProt Q8IY84).
T5 construct: gene NIM1K
T5 sequence (Q8IY84 whole entry): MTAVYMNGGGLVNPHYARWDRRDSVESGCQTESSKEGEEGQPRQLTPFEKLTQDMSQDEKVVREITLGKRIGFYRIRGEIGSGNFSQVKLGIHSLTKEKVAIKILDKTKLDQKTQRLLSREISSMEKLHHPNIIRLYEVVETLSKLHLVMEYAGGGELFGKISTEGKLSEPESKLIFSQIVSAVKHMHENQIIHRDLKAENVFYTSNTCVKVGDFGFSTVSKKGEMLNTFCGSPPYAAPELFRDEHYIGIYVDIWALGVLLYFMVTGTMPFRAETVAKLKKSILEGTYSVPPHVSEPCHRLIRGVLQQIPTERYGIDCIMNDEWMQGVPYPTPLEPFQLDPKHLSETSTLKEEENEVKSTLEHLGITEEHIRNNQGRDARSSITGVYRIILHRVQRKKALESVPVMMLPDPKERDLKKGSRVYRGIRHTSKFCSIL
As to conditions: competition binding, % of control; read-out: Percent Control (100 uM Levosimendan). The method, boiled down:
as §1

The target of the next assay is BMPR2 (Homo sapiens, UniProt Q13873). As to conditions: competition binding, % of control; read-out: Percent Control (100 uM Levosimendan). The essentials: as §1
Sequence of BMPR2 (Q13873 whole entry): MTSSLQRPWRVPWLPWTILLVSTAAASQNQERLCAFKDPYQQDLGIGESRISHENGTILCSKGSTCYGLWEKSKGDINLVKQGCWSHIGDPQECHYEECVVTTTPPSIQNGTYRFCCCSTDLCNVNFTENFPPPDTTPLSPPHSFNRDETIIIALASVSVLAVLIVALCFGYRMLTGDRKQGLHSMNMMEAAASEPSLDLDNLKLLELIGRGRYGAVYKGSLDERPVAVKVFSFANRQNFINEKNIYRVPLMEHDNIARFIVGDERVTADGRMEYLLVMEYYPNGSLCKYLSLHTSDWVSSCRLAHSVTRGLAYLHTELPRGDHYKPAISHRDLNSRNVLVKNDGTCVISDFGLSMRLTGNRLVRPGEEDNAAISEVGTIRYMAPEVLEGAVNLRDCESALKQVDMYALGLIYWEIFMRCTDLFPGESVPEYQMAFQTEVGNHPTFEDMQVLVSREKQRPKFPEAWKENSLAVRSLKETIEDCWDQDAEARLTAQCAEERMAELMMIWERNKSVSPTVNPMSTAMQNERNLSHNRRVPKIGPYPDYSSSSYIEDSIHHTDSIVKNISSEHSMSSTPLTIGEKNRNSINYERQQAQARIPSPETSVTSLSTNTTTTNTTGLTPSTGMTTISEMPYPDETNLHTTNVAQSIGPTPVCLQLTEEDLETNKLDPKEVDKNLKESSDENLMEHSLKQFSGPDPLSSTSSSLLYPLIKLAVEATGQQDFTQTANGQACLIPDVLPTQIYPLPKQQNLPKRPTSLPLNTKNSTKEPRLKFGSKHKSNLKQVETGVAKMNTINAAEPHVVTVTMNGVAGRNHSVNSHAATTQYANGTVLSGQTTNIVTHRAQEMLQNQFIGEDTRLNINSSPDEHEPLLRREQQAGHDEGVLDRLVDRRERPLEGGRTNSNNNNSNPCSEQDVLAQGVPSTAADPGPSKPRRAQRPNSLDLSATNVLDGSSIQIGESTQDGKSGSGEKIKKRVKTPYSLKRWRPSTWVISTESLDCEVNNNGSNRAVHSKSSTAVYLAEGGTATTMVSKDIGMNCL
In the next assay the target is T6, CDK11 (Homo sapiens, UniProt Q9BWU1).
T6 construct: gene CDK19
Conditions: competition binding, % of control; read-out: Percent Control (100 uM Levosimendan). The method, boiled down: as §1

The target of the next assay is T7, DRAK1 (Homo sapiens, UniProt Q9UEE5).
T7 construct: gene STK17A
T7 sequence (Q9UEE5 whole entry): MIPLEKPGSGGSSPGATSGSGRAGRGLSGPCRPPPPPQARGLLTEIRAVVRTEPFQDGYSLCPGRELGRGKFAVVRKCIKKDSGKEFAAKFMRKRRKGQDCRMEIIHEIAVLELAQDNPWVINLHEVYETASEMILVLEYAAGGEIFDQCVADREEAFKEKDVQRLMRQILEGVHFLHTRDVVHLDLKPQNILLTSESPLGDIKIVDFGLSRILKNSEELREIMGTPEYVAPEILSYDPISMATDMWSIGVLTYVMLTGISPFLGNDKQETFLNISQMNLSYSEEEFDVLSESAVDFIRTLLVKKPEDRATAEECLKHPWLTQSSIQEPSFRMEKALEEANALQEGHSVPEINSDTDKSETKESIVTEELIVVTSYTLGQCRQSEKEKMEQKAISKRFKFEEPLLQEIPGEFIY
Conditions: competition binding, % of control. The method, boiled down: as §1

Another assay deals with HASPIN (Homo sapiens, UniProt Q8TF76). Conditions: competition binding, % of control; read-out: Percent Control (100 uM Levosimendan). The essentials: as §1
The mark [1] stands for this setting: read-out: Percent Control (10 uM Levosimendan).
[2] abbreviates: read-out: Percent Control (100 uM Levosimendan).

Sequence of BRAF (P15056 whole entry): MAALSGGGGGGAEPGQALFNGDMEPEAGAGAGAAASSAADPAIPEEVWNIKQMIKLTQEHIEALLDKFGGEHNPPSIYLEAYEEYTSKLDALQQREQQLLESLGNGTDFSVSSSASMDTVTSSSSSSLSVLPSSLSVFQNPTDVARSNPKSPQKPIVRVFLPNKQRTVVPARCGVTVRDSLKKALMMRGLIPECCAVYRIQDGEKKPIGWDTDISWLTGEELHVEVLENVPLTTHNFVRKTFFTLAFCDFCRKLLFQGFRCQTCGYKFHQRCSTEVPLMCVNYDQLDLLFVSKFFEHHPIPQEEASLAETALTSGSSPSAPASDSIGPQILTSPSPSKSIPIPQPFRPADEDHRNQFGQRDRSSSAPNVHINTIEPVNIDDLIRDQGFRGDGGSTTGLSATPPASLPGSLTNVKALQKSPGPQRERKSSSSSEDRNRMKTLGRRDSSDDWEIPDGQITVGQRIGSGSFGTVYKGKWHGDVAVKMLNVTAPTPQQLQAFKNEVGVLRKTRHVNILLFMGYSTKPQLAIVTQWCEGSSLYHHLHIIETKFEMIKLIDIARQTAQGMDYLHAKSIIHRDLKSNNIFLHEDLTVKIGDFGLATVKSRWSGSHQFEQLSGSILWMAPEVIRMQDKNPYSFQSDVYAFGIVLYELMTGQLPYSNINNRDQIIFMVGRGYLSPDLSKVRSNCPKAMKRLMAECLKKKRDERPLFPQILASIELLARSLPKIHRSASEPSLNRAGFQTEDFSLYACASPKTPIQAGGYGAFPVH

Regarding `C[C@@H]1CC(=O)NN=C1c1ccc(NN=C(C#N)C#N)cc1` [levosimendan], the remaining binding at 100 µM at CDK9 came to 100%; on CLK3 it was 68%; on MAP3K15, 100%; on DRAK2 (setting [2]), 20%; at NEK6 it was 71%; on RIOK3 (setting [2]), 0%. For the same molecule, the remaining binding at 100 µM at ALK(C1156Y) was found to be 64%; at AMPK-alpha2 it was 83%; on BRAF, 81%; on MEK5 (setting [2]), 2.6%; on NIM1 it was 65%; on BMPR2, 100%. The results for the remaining binding at 100 µM at CDK11, at DRAK1 (setting [2]) and at HASPIN were 100%, 22% and 69%, respectively. For the same molecule, the remaining binding at 10 µM at DRAK2 (setting [1]) came out at 99%; on RIOK3 (setting [1]), 15%; at MEK5 (setting [1]) it was 17%; at DRAK1 (setting [1]) it was 87%.
